In paper PMC6792352, “Limited Chemical Structural Diversity Found to Modulate Thyroid Hormone Receptor in the Tox21 Chemical Library” (Environmental Health Perspectives, 2019) one finds CC50 data, which are given here for 70 compounds.

Structures can show the parent of a compound that is named as a salt.

The nature of the data set: in vitro. The note with it: rat, gh3-tre-luc cells.

`O=P(c1ccccc1)(c1ccccc1)c1ccccc1` [Triphenylphosphine oxide] gave a CC50 at 24 h (AC50 (uM) modified / 1000) of more than 90 µM.
As for `C=CC(Cl)CCl` (centres unmarked) [3,4-Dichloro-1-butene], the half-maximal cytotoxic concentration (CC50) at 24 h (AC50 (uM) modified / 1000, Tox21_110001=Tox21_201361, viability, 1 nM T3 present, 24 h) is more than 90 µM.
Take `CC1=C2[C@@H]([C@H](C)CC[C@H]2/C=C(\C)C(=O)O)[C@H](O)C1` [Hydroxyvalerenic acid]: the CC50 at 24 h (AC50 (uM) modified / 1000) is more than 90 µM.
For the compound `CCOC(=O)c1ccccc1N` [Ethyl anthranilate], the CC50 at 24 h (AC50 (uM) modified / 1000, Tox21_110001=Tox21_202019, viability, 1 nM T3 present, 24 h) was more than 90 µM.
As to `O=c1c(O)c(O)c1=O` [Squaric acid], for the setting “AC50 (uM) modified / 1000”, the CC50 at 24 h is more than 90 µM.
Regarding `CO[C@@H]1[C@@H](O[C@@H]2O[C@H](C)[C@@H](O[C@H]3C[C@@](C)(O)[C@@H](OC(=O)CC(C)C)[C@H](C)O3)[C@H](N(C)C)[C@H]2O)[C@@H](CC=O)C[C@@H](C)C(=O)/C=C/[C@@H]2O[C@H]2C[C@@H](C)OC(=O)C[C@H]1OC(C)=O` [Carbomycin A], it took 34.1 µM to reach half-maximal cytotoxicity (AC50 (uM) modified / 1000) (CC50 at 24 h).
`O=c1[nH]c(=O)n(Cl)c(=O)n1Cl` [Sodium dichloroisocyanurate] came in with a CC50 at 24 h (AC50 (uM) modified / 1000, Tox21_110001=Tox21_112083, viability, 1 nM T3 present, 24 h) of more than 50 µM and a CC50 at 24 h (AC50 (uM) modified / 1000, Tox21_110001=Tox21_201601, viability, 1 nM T3 present, 24 h) of more than 90 µM.
Under “AC50 (uM) modified / 1000”, `NC(=O)[C@@H]1C[C@]2(NC(=O)NC2=O)c2cc(F)ccc2O1` [Fidarestat] yielded a CC50 at 24 h of more than 50 µM.
Under “AC50 (uM) modified / 1000”, `CCCCCCCCCCCCCC(=O)O` [Tetradecanoic acid] gave a CC50 at 24 h of more than 90 µM.
The compound `Cc1nc(NS(=O)(=O)c2ccc(N)cc2)nc(C)c1Br` [Sulfabromomethazine] displayed a CC50 at 24 h (AC50 (uM) modified / 1000) of more than 50 µM.
Same read-out and setting: the figure for `O=C(CCCN1CCC(n2c(=S)[nH]c3ccccc32)CC1)c1ccc(F)cc1` [Timiperone] is 23.9 µM; for `CCN(CC)C(=O)N(CC)CC` [Tetraethylurea] it is more than 90 µM; for `CCCCC(CC)COS(=O)(=O)O` (centres unmarked) [Sodium ethasulfate] it is more than 90 µM.
On the same count and under the same terms, with `CCCCCCC(C)(C)C(=O)O` [Calcium neodecanoate] the figure was more than 90 µM; with `Clc1ccccc1` [Chlorobenzene], more than 90 µM.
For `Cn1c(=O)c2[nH]c(Br)nc2n(C)c1=O` [8-Bromotheophylline], the 50% cytotoxic concentration (CC50) at 24 h (AC50 (uM) modified / 1000) was more than 50 µM.
The same measure, in the same setting: with `Cc1cc(-c2ccc(/N=N/c3c(S(=O)(=O)O)cc4cc(S(=O)(=O)O)cc(N)c4c3O)c(C)c2)ccc1/N=N/c1c(S(=O)(=O)O)cc2cc(S(=O)(=O)O)cc(N)c2c1O` [C.I. Direct Blue 14] the figure was 22.8 µM.
Same read-out and setting: the figure for `CC(C)(C)c1cc(Cc2cc(C(C)(C)C)c(O)c(C(C)(C)C)c2)cc(C(C)(C)C)c1O` [4,4'-Methylenebis(2,6-di-t-butylphenol)] is more than 90 µM; for `CCc1ccccc1` [Ethylbenzene] it is more than 90 µM; for `CC1(C)[C@H](C=C(Cl)Cl)[C@H]1C(=O)OCc1c(F)c(F)cc(F)c1F` [Transfluthrin] it is more than 50 µM.
Take `N=C(N)NC(=O)Cc1c(Cl)cccc1Cl` [Guanfacine hydrochloride]: the CC50 at 24 h (AC50 (uM) modified / 1000) was 31.7 µM.
On the same count and under the same terms, the figure for `Nc1c2c(nc3c1CCC3)CCCC2` [Ipidacrine hydrochloride hydrate] is more than 50 µM; for `Nc1cc[nH]c(=O)n1` [Cytosine] it is more than 90 µM.
Compound `O=c1ccn(C2OC(COP(=O)(O)OC3C(CO)OC(n4ccc(=O)[nH]c4=O)C3O)C(O)C2O)c(=O)[nH]1` (centres unmarked) [Uricase from Bacillus fastidiosus] displayed a half-maximal cytotoxic concentration (CC50) at 24 h (AC50 (uM) modified / 1000) of more than 50 µM.
`O=C(Cl)CCl` [Chloroacetyl chloride] displayed a CC50 at 24 h (AC50 (uM) modified / 1000) of more than 90 µM.
For the setting “AC50 (uM) modified / 1000”, `CCC(C)COC(C)=O` (centres unmarked) [2-Methylbutyl acetate] registered a CC50 at 24 h of more than 90 µM.
Regarding `CNC(=O)CSP(=S)(OC)OC` [Dimethoate], under “AC50 (uM) modified / 1000, Tox21_110001=Tox21_202246, viability, 1 nM T3 present, 24 h”, the CC50 at 24 h was more than 90 µM.
Turning to `CSCCCN=C=S` [3-(Methylthio)propyl isothiocyanate], the CC50 at 24 h (AC50 (uM) modified / 1000) is more than 90 µM.
Compound `Cc1cccc(C)c1N=C1NCCCS1` [Xylazine] showed a CC50 at 24 h (AC50 (uM) modified / 1000, Tox21_110001=Tox21_110303, viability, 1 nM T3 present, 24 h) of more than 50 µM.
On to `O=C(O)C(c1ccc(Cl)cc1)c1ccc(Cl)cc1` [p,p'-DDA], for which the CC50 at 24 h (AC50 (uM) modified / 1000) was more than 90 µM.
`O=C(O)c1cc(/N=N/c2ccc(S(=O)(=O)Nc3ccccn3)cc2)ccc1O` [Sulfasalazine] gave a CC50 at 24 h (AC50 (uM) modified / 1000) of more than 90 µM.
Same read-out and setting: with `CC(=O)OC(C)=O` [Acetic anhydride] the figure was more than 90 µM; with `O=C1CN2Cc3c(ccc(Cl)c3Cl)N=C2N1` [Anagrelide hydrochloride], more than 50 µM; with `CNC[C@@H]1CC[C@@H](N)[C@@H](O[C@H]2[C@H](O)[C@@H](O[C@H]3OC[C@](C)(O)[C@H](NC)[C@H]3O)[C@H](N)C[C@@H]2N)O1` [Micronomicin sulfate], more than 50 µM.
Compound `CCN(CC)CCOC[C@H]1O[C@@H](O)[C@H](OCCN(CC)CC)[C@@H](O)[C@@H]1O` [Diethylaminoethyl-sephacel] showed a CC50 at 24 h (AC50 (uM) modified / 1000) of more than 50 µM.
On the same count and under the same terms, the figure for `O=C(OCCOCCOC(=O)c1ccccc1)c1ccccc1` [Diethylene glycol dibenzoate] is more than 90 µM; for `C1CCCCC1` [Cyclohexane] it is more than 90 µM.
As for `CC1COc2c(N3CCN(C)CC3)c(F)cc3c(=O)c(C(=O)O)cn1c23` (centres unmarked) [Ofloxacin], the half-maximal cytotoxic concentration (CC50) at 24 h (AC50 (uM) modified / 1000) was more than 50 µM.
`Nc1cccnc1` [3-Pyridinamine] had a CC50 at 24 h (AC50 (uM) modified / 1000, Tox21_110001=Tox21_201650, viability, 1 nM T3 present, 24 h) of more than 90 µM.
Compound `COc1cc(CC(C)N)cc(OC)c1OC` (centres unmarked) [3,4,5-Trimethoxyamphetamine hydrochloride] yielded a CC50 at 24 h (AC50 (uM) modified / 1000) of more than 100 µM.
Where the note is “AC50 (uM) modified / 1000”, `CC(C(=O)O)c1ccc2c(c1)Cc1cccnc1O2` (centres unmarked) [Pranoprofen] displayed a CC50 at 24 h of more than 50 µM.
Turning to `c1ccc(CSCc2ccccc2)cc1` [Benzyl sulfide], the CC50 at 24 h (AC50 (uM) modified / 1000) is more than 90 µM.
For the setting “AC50 (uM) modified / 1000”, `Cc1ccc(C(=O)c2ccc(CC(=O)O)n2C)cc1` [Tolmetin sodium dihydrate] displayed a CC50 at 24 h of more than 20 µM.
The same measure, in the same setting: the figure for `CCN(Cc1cccc(S(=O)(=O)O)c1)c1ccc(C(=C2C=CC(=[N+](CC)Cc3cccc(S(=O)(=O)[O-])c3)C=C2)c2ccccc2)cc1` [FD&C Green No. 1] is more than 70 µM; for `O=C(NCCc1c[nH]c2ccccc12)c1cccnc1` [Nicotredole] it is more than 50 µM; for `CCCCC(CC)C(=O)OC(C)C` (centres unmarked) [Propan-2-yl 2-ethylhexanoate] it is more than 90 µM.
`CNC(=O)Oc1cccc2c1OC(C)(C)O2` [Bendiocarb] returned a CC50 at 24 h (AC50 (uM) modified / 1000, Tox21_110001=Tox21_201562, viability, 1 nM T3 present, 24 h) of more than 90 µM.
For the compound `C[C@@H](N)C(=O)O` [D-Alanine], the CC50 at 24 h (AC50 (uM) modified / 1000) was more than 50 µM.
`COc1ccc2c3c1O[C@H]1[C@@H](O)C=C[C@H]4[C@@H](C2)NCC[C@@]341` [Norcodeine] had a CC50 at 24 h (AC50 (uM) modified / 1000, Tox21_110001=Tox21_112027, viability, 1 nM T3 present, 24 h) of more than 50 µM.
Regarding `c1coc(Cn2cccc2)c1` [1-Furfurylpyrrole], the CC50 at 24 h (AC50 (uM) modified / 1000) is more than 90 µM.
Under “AC50 (uM) modified / 1000”, `C=CC(=O)OCCCC` [Butyl acrylate] displayed a CC50 at 24 h of more than 90 µM.
Take `CCCO` [1-Propanol]: for the setting “AC50 (uM) modified / 1000”, the CC50 at 24 h was more than 90 µM.
The same measure, in the same setting: the figure for `O=C(Cn1cnnn1)N[C@@H]1C(=O)N2C(C(=O)O)=C(CSc3nncs3)CS[C@H]12` [Ceftezole sodium] is more than 50 µM.
`ClCc1ccccn1` [2-(Chloromethyl)pyridine hydrochloride] yielded a CC50 at 24 h (AC50 (uM) modified / 1000) of more than 90 µM.
As for `O=C(Cl)c1ccccc1[N+](=O)[O-]` [2-Nitrobenzoyl chloride], the CC50 at 24 h (AC50 (uM) modified / 1000) was more than 90 µM.
Take `CCCCCCC(=O)O[C@H]1CC[C@H]2[C@@H]3CCc4cc(O)ccc4[C@H]3CC[C@]12C` [Estradiol enanthate]: for the setting “AC50 (uM) modified / 1000”, the CC50 at 24 h was more than 50 µM.
Turning to `CC(=C(CCOC(=O)C(C)C)SSC(CCOC(=O)C(C)C)=C(C)N(C=O)Cc1cnc(C)nc1N)N(C=O)Cc1cnc(C)nc1N` (stereo in doubt) [Bisibutiamine], the 50% cytotoxic concentration (CC50) at 24 h (AC50 (uM) modified / 1000) is more than 50 µM.
Where the note is “AC50 (uM) modified / 1000”, `CCCCCCCCCCCSCC(=O)O` [3-Thiatetradecanoic acid] returned a CC50 at 24 h of 50.2 µM.
On the same count and under the same terms, with `CC(O)(c1ccc(Cl)cc1)c1ccc(Cl)cc1` [Chlorfenethol] the figure was 76.2 µM.
Consider `CCN(CC)CCOC(=O)C(c1ccccc1)c1ccccc1` [Adiphenine hydrochloride], for which, for the setting “AC50 (uM) modified / 1000”, the CC50 at 24 h was 43.3 µM.
`Cc1cc(C)nc(NS(=O)(=O)c2ccc(N)cc2)n1` [Sulfamethazine] yielded a CC50 at 24 h (AC50 (uM) modified / 1000) of more than 90 µM.
In turn, `NCCS(=O)(=O)O` [l-Taurine] registered a CC50 at 24 h (AC50 (uM) modified / 1000) of 29.5 µM.
Turning to `COc1ccc(C(C)=O)cc1` [4'-Methoxyacetophenone], for the setting “AC50 (uM) modified / 1000”, the CC50 at 24 h is more than 90 µM.
In turn, `C=CC[N+](C)(C)CC=C` [Diallyldimethylammonium chloride] displayed a CC50 at 24 h (AC50 (uM) modified / 1000) of more than 90 µM.
Same read-out and setting: the figure for `CCCn1cc[n+](C)c1` [1-Methyl-3-propylimidazolium iodide] is more than 90 µM; for `C=C(C)C(=O)OCCOP(=O)(O)OCCOC(=O)C(=C)C` [Bis(methacryloyloxyethyl) hydrogen phosphate] it is more than 90 µM; for `CCN(CCO)CCCC(C)Nc1ccnc2cc(Cl)ccc12` (centres unmarked) [Hydroxychloroquine sulfate] it is more than 50 µM.
Regarding `CCSc1ccc2c(c1)N(CCCN1CCN(C)CC1)c1ccccc1S2` [Thiethylperazine malate], the CC50 at 24 h (AC50 (uM) modified / 1000) was more than 20 µM.
As to `Clc1cccc2ccccc12` [1-Chloronaphthalene], the CC50 at 24 h (AC50 (uM) modified / 1000, Tox21_110001=Tox21_200823, viability, 1 nM T3 present, 24 h) was more than 90 µM.
On to `CCOC(=O)CCN(SN(C)C(=O)Oc1cccc2c1OC(C)(C)C2)C(C)C` [Benfuracarb], for which the midpoint of cytotoxicity (AC50 (uM) modified / 1000, Tox21_110001=Tox21_301582, viability, 1 nM T3 present, 24 h), the CC50 at 24 h, lay at 64 µM.

As usually defined, the CC50 is the concentration at which the toxic effect on the cells reaches its halfway point.
